For 21 molecules, IC50 results are on record in US20140011799A1 (Bristol-Myers Squibb Company, priority 2012, published 2014).

Each structure is given as a SMILES string. A value given as a limit tells only on which side of the number the result lay.

The test addresses T1, Endothelial lipase (EL) (Homo sapiens, UniProt Q9Y5X9).
T1 construct: HT-1080 cells that were transformed using RAGE technology (Athersys) to overexpress endogenous EL; endogenous in cells; conditioned medium used
T1 sequence (Q9Y5X9 21-500): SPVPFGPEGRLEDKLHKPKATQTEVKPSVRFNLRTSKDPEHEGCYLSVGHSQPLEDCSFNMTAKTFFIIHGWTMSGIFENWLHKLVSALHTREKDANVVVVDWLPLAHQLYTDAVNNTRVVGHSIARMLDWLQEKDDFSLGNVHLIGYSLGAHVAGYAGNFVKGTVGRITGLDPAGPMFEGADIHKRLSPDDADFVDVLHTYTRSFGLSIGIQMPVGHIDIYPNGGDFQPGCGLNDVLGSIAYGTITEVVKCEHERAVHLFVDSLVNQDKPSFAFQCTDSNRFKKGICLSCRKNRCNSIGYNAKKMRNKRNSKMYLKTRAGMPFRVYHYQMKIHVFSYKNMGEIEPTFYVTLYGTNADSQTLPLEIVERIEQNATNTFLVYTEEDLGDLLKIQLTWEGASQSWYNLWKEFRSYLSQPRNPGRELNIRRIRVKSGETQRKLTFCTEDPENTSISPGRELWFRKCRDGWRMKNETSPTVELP
Briefly: Endothelial lipase (EL) enzymatic assay, fluorescent substrate A10070 in DMPG vesicles. The class given is biochemical. As to conditions: EL from conditioned media of HT-1080 cells; compound preincubated 30 min at 37° C; read-out: EL IC50. The procedure: Endothelial lipase (EL) and hepatic lipase (HL) activities were measured using a fluorescent substrate, A10070, (Invitrogen, CA) doped into an artificial vesicle containing DMPG (Avanti Polar Lipids) as the excipient. Vesicles were prepared by combining 571 μL of 29 mM DMPG in a 1:1 mixture of MeOH and CHCl3 with 2000 μL of 1 mM A10070 in a 1:1 mixture of MeOH and CHCl3. The mixture was dried under nitrogen in multiple vials then resuspended in 20 mL total volume of 50 mM HEPES pH 8.0 buffer containing 50 mM NaCl and 0.2 mM EDTA. The sample was allowed to sit at room temperature for 15 min and then was sonicated 3×4 mins on ice with a Branson Sonicator using duty cycle 1. This preparation provides vesicles with a mole fraction of 0.11 for the FRET substrate.
The enzymatic assay was measured using 384-well white Optiplates. Each well contained 20 μL of assay buffer (50 mM HEPES pH 8.0, 50 mM NaCl and 1 mM CaCl2) and 0.25 μL of a DMSO solution containing a compound of interest. EL or HL (10 μL) was added and allowed to incubate with the compound for 30 min at 37° C. The source of EL was conditioned media obtained from HT-1080 cells that were transformed using RAGE technology (Athersys) to overexpress endogenous EL, and HL was partially purified from conditioned media obtained from COS cells overexpressing HL. The reaction was started by the addition of 10 μL of a 1:10 dilution of vesicles. The final total reaction volume was […]. The reaction rates were measured on a Gemini plate reader with an excitation wavelength of 490 nm and an emission wavelength of 530 nm. Readings were taken over a period of 60 minutes, and the slope between 300 and 900 secs of the readout was used to calculate the rate of the reaction.
For orientation: IC50 means the midpoint of a concentration-inhibition curve. In the case of `CC1(Cc2nnc(C(c3nc4ccc(-c5ccc(C(=O)N6CCOCC6)cc5)cc4s3)S(=O)(=O)Cc3ccccc3)o2)NC(=O)NC1=O` (stereo not drawn) [Example 8, 5-((5-((benzylsulfonyl)(6-(4-(morpholine-4-carbonyl)phenyl)benzo[d]thiazol-2-yl)methyl)-1,3,4-oxadiazol-2-yl)methyl)-5-methylimidazolidine-2,4-dione], the half-inhibitory concentration (IC50) is 62 nM. The result for `NS(=O)(=O)Cc1nnc(C(c2nc3ccc(-c4ccccc4)cc3s2)S(=O)(=O)CCC(F)(F)F)o1` (stereo not drawn) [Example 35] reads under 10 nM; that for `CC1(Cc2nnc(C(c3nc4ccc(-c5ccc(F)nc5)cc4s3)S(C)(=O)=O)o2)SC(=O)NC1=O` (single isomer, unassigned; isomer b) [Example 18, 5-((5-((6-(6-fluoropyridin-3-yl)benzo[d]thiazol-2-yl)(methylsulfonyl)methyl)-1,3,4-oxadiazol-2-yl)methyl)-5-methylthiazolidine-2,4-dione (Isomer B)], under 10 nM; that for `CCS(=O)(=O)C(c1nnc(CNS(N)(=O)=O)o1)c1nc2ccc(-c3ccccc3)cc2s1` (stereo not drawn) [Example 65, N-({5-[(ethylsulfonyl) (6-phenyl-1,3-benzothiazol-2-yl)methyl]-1,3,4-oxadiazol-2-yl}methyl)sulfuric diamide], under 10 nM. The result for `CS(=O)(=O)C(c1nnc(CC2NC(=O)NC2=O)o1)c1nc2ccc(-c3ccc(C(=O)N4CCOCC4)cc3)cc2s1` (stereo not drawn) [Example 16, 5-((5-((methylsulfonyl)(6-(4-(morpholine-4-carbonyl)phenyl)benzo[d]thiazol-2-yl)methyl)-1,3,4-oxadiazol-2-yl)methyl)imidazolidine-2,4-dione] reads 46 nM; that for `CC(C)S(=O)(=O)C(c1nnc(CNS(N)(=O)=O)o1)c1nc2ccc(-c3ccccc3)cc2s1` (stereo not drawn) [Example 49], under 10 nM. As for `O=C(NCCS(=O)(=O)C(c1nnc(CC2SC(=O)NC2=O)o1)c1nc2c(F)cc(-c3ccccc3)cc2s1)OCc1ccccc1` (stereo not drawn) [Example 92, benzyl (2-(((5-((2,4-dioxothiazolidin-5-yl)methyl)-1,3,4-oxadiazol-2-yl)(4-fluoro-6-phenyl-benzo[d]thiazol-2-yl)methyl)sulfonyl)ethyl) carbamate], the 50% inhibitory concentration (IC50) is under 10 nM. The result for `CC(C)(C)OC(=O)NCc1nnc(C(c2nc3ccc(-c4ccccc4)cc3s2)S(C)(=O)=O)o1` (stereo not drawn) [Example 83, tert-Butyl ((5-((methylsulfonyl)(6-phenylbenzo[d]thiazol-2-yl)methyl)-1,3,4-oxadiazol-2-yl)methyl)carbamate] reads under 10 nM. As for `Cc1nccn1-c1nc(-c2ccc3nc(C(c4nnc(CC5SC(=O)NC5=O)o4)S(C)(=O)=O)sc3c2)cs1` (stereo not drawn) [Example 25, 5-((5-((6-(2-(2-methyl-1H-imidazol-1-yl)thiazol-4-yl)benzo[d]thiazol-2-yl)(methylsulfonyl)methyl)-1,3,4-oxadiazol-2-yl)methyl) thiazolidine-2,4-dione], the IC50 is under 10 nM. As to `CC1(Cc2nnc(C(c3nc4ccc(-c5ccnc(F)c5)cc4s3)S(=O)(=O)Cc3ccccc3)o2)NC(=O)NC1=O` (single isomer, unassigned; isomer a) [Example 9, 5-((5-((benzylsulfonyl)(6-(2-fluoropyridin-4-yl)benzo[d]thiazol-2-yl)methyl)-1,3,4-oxadiazol-2-yl)methyl)-5-methylimidazolidine-2,4-dione (Isomer A)], the IC50 was 122 nM. Take `CC1(Cc2nnc(C(c3nc4ccc(-c5ccc(F)nc5)cc4s3)S(C)(=O)=O)o2)SC(=O)NC1=O` (single isomer, unassigned; isomer a) [Example 17, 5-((5-((6-(6-fluoropyridin-3-yl)benzo[d]thiazol-2-yl)(methylsulfonyl)methyl)-1,3,4-oxadiazol-2-yl)methyl)-5-methylthiazolidine-2,4-dione (Isomer A)]: the half-maximal inhibitory concentration (IC50) is under 10 nM. As for `CS(=O)(=O)C(c1nnc(CS(N)(=O)=O)o1)c1nc2ccc(-c3ccccc3)cc2s1` (stereo not drawn) [Example 89, (5-((Methylsulfonyl)(6-phenylbenzo[d]thiazol-2-yl)methyl)-1,3,4-oxadiazol-2-yl)methanesulfonamide], the IC50 is under 10 nM.

With `CC(C)S(=O)(=O)C(c1nnc(CC2SC(=O)NC2=O)o1)c1nc2c(F)cc(-c3ccccc3)cc2s1` (stereo not drawn) [Example 95, 5-((5-((4-fluoro-6-phenyl-benzo[d]thiazol-2-yl) (isopropylsulfonyl)methyl)-1,3,4-oxadiazol-2-yl)methyl)thiazolidine-2,4-dione], the half-maximal inhibitory concentration (IC50) was under 10 nM.

For `NS(=O)(=O)NCc1nnc(C(c2nc3ccc(-c4ccccc4)cc3s2)S(=O)(=O)CCC(F)(F)F)o1` (stereo not drawn) [Example 50, N-[(5-{(6-phenyl-1,3-benzothiazol-2-yl) [(3,3,3-trifluoropropyl)sulfonyl]methyl}-1,3,4-oxadiazol-2-yl)methyl]sulfuric diamide], the IC50 was under 10 nM.

Consider `Cc1cccc(CS(=O)(=O)C(c2nnc(CNS(N)(=O)=O)o2)c2nc3ccc(-c4ccccc4)cc3s2)c1` (stereo not drawn) [Example 64, N-((5-(((3-methylbenzyl)sulfonyl)(6-phenyl-1,3-benzothiazol-2-yl)methyl)-1,3,4-oxadiazol-2-yl)methyl)sulfamide], for which the IC50 was under 10 nM. The result for `COc1nc(-c2nnc(C(c3nc4ccc(-c5ccc(F)cc5)cc4s3)S(C)(=O)=O)o2)c(O)c(=O)[nH]1` (stereo not drawn) [Example 43, 6-(5-((6-(4-Fluorophenyl)benzo[d]thiazol-2-yl)(methylsulfonyl)methyl)-1,3,4-oxadiazol-2-yl)-5-hydroxy-2-methoxypyrimidin-4(3H)-one] reads 14 nM; that for `CC1(Cc2nnc(C(c3nc4ccc(-c5ccccc5)cc4s3)S(C)(=O)=O)o2)NC(=O)NC1=O` (stereo not drawn) [Example 29, 5-methyl-5-((5-((methylsulfonyl)(6-phenyl-1,3-benzothiazol-2-yl)methyl)-1,3,4-oxadiazol-2-yl)methyl)-2,4-imidazolidinedione], under 10 nM. The result for `CC(c1nnc(CNS(N)(=O)=O)o1)c1nc2ccc(-c3ccc(F)nc3)cc2s1` (stereo not drawn) [Reference 3, N-((5-(1-(6-(6-Fluoro-3-pyridinyl)-1,3-benzothiazol-2-yl)ethyl)-1,3,4-oxadiazol-2-yl)methyl)sulfamide, reference compound] reads 6520 nM; that for `CC(C)(C)CN1CC(c2nnc(C(c3nc4ccc(-c5ccccc5)cc4s3)S(=O)(=O)Cc3ccccc3)o2)C1` (stereo not drawn) [Example 82, 2-((Benzylsulfonyl)(6-phenylbenzo[d]thiazol-2-yl)methyl)-5-(1-neopentylazetidin-3-yl)-1,3,4-oxadiazole], 26 nM. With `NS(=O)(=O)NCc1nnc(C(c2nc3ccc(-c4ccccc4)cc3s2)S(=O)(=O)Cc2ccc(Cl)c(Cl)c2)o1` (stereo not drawn) [Example 60, N-((5-(((3,4-chlorobenzyl)sulfonyl)(6-phenyl-1,3-benzothiazol-2-yl)methyl)-1,3,4-oxadiazol-2-yl)methyl)sulfamide], the half-inhibitory concentration (IC50) is under 10 nM.

As to `NS(=O)(=O)NCc1nnc(C(c2nc3ccc(-c4ccccc4)cc3s2)S(=O)(=O)C2CCCC2)o1` (stereo not drawn) [Example 67, N-({5-[(cyclopentylsulfonyl) (6-phenyl-1,3-benzothiazol-2-yl)methyl]-1,3,4-oxadiazol-2-yl}methyl)sulfuric diamide], the IC50 is under 10 nM.
